Data as given in PubChem BioAssay (NCI).
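Dose response: 5 concentrations. Exposure: 48 h. Format: 96-well plates. Endpoint: linear interpolation; highest concentration if not reached. The concentration for full growth arrest is given as TGI.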

Legend:
Assay in all cases: NCI tumour cell line growth inhibition, 48 h
KM12 colon = system: KM12 colon
NCI-H460 lung = system: NCI-H460 lung
A498 renal = system: A498 renal
COLO 205 colon = system: COLO 205 colon
PC-3 prostate = system: PC-3 prostate
SK-MEL-28 melanoma = system: SK-MEL-28 melanoma
HT29 colon = system: HT29 colon
SF-295 CNS = system: SF-295 CNS
SK-MEL-2 melanoma = system: SK-MEL-2 melanoma
BT-549 breast = system: BT-549 breast
SK-MEL-5 melanoma = system: SK-MEL-5 melanoma
CAKI-1 renal = system: CAKI-1 renal
HOP-92 NSCLC = system: HOP-92 NSCLC
MDA-N = system: MDA-N
DU-145 prostate = system: DU-145 prostate
OVCAR-4 ovarian = system: OVCAR-4 ovarian
K-562 leukemia = system: K-562 leukemia
A549 NSCLC = system: A549 NSCLC
SK-OV-3 ovarian = system: SK-OV-3 ovarian
HCC-2998 colon = system: HCC-2998 colon

Measured: TGI

O=C(Nc1sccc1S(=O)(=O)c1ccc(Cl)cc1)C(F)(F)F
62.5 µM: CAKI-1 renal
48.4 µM: SK-MEL-2 melanoma
77.3 µM: MDA-N
38.8 µM: SK-MEL-5 melanoma
61.4 µM: KM12 colon
31.8 µM: COLO 205 colon
35.5 µM: K-562 leukemia
> 100 µM: all other assays above

Cc1cc(S(=O)(=O)n2ccnc2Oc2ccccc2)c(SSc2cc(Cl)c(C)cc2S(=O)(=O)n2ccnc2Oc2ccccc2)cc1Cl
not listed: SF-295 CNS
> 100 µM: all other assays above

CN(C)/C=C(\C(=O)c1ccccc1)n1nc(-c2ccccc2)cc1-c1ccccc1
not listed: K-562 leukemia
> 10 µM: all other assays above

Cn1c(=O)c2c(nc(N)n2C2OC(CO)C(O)C2O)n(C)c1=O (stereo unspecified)
not listed: SK-MEL-2 melanoma
> 100 µM: all other assays above

CN1C(=O)[C@@H]2N(CSC2(C)C)C1=S
> 100 µM: all assays above

CCOC(=O)CCC(NC(=O)c1ccc(Nc2nc3ccccc3n3cccc23)cc1)C(=O)OCC (stereo unspecified)
71.1 µM: SF-295 CNS
50.1 µM: SK-OV-3 ovarian
77.3 µM: BT-549 breast
39.7 µM: SK-MEL-2 melanoma
34.5 µM: PC-3 prostate
97.7 µM: DU-145 prostate
not listed: OVCAR-4 ovarian
> 100 µM: all other assays above
